Consider one compound from patent US11913075B2, “Methods and compositions for detecting and modulating an immunotherapy resistance gene signature in cancer” (The Broad Institute, Inc., priority 2017, dated 2024).

For assay [1], the system named is UACC257 melanoma cell line (RB-sufficient). Description: scRNA-seq of UACC257 melanoma cell line before and after abemaciclib for 1 week. Type of assay: cell-based. The conditions noted are these: UACC257, post treatment with abemaciclib; 10% prior to treatment. The method, then:
(§1) Applicants performed scRNA-seq on these cell lines before and after treatment with abemaciclib for 1 week (FIG. 41).
(§2) To test this hypothesis, Applicants studied the effect of abemaciclib on the immune resistance program in melanoma cell lines. […] Applicants profiled each cell line with scRNA-seq before and after treatment with abemaciclib for 1 week (FIGS. 49D-E), analyzing over 23,000 cells in these and follow-up conditions (below).
(§3) For droplet-based scRNA-seq, experiments were performed on the 10× Genomics Chromium platform, with the Chromium Single Cell 3′ Library & Gel Bead Kit v2 and Chromium Single Cell 3′ Chip kit v2 according to the manufacturer's instructions in the Chromium Single Cell 3′ Reagents Kits V2 User Guide. Briefly, 6,000 cells were re suspended in PBS supplemented with 0.04% BSA and loaded to each channel. The cells were then partitioned into Gel Beads in Emulsion in the GemCode instrument, where cell lysis and barcoded reverse transcription of RNA occurred, followed by amplification, shearing and 5′ adaptor and sample index attachment.

Assay [2] concerns IGR37 melanoma cell line (RB-sufficient). Description: scRNA-seq of IGR37 melanoma cell line before and after abemaciclib for 1 week. The conditions noted are these: IGR37, post-treatment with abemaciclib; 10% before treatment. Type of assay: cell-based. The method, then:
as §1, §2, §3

Consider `CCN1CCN(Cc2ccc(Nc3ncc(F)c(-c4cc(F)c5nc(C)n(C(C)C)c5c4)n3)nc2)CC1` [abemaciclib], for which the “cells with exceptionally strong expression of the immune resistance program ("immune resistant" cells)” value in assay [1] came out at 1%. Besides, the “cells with exceptionally strong expression of the uICR signature / immune resistance program ("immune resistant" cells)” value in assay [2] is 2%.
